Measured values from article PMC12408343, “Deep learning reveals antibiotics in the archaeal proteome” (Nature Microbiology, 2025).
Values after ≈ are worked out from the molar mass of the structure shown. Peptide text beside a SMILES is read from it.

Tests used:
[1] = test system: E. faecium ATCC 700221 (VRE); assay: microbe, parasite or virus in culture; conditions: for MIC E. faecium ATCC 700221 – VRE (+): ATCC 700221, 24 h; for MIC, E. faecium ATCC 700221 - VRE (+): Fig 2a source data, Gram-positive, broth microdilution
Procedure: (§1) Briefly, 10^5 bacterial cells were incubated with serially diluted EPs (0–64 μmol l^−1) at 37 °C. Bacterial growth was assessed by measuring the optical density at 600 nm in a microplate reader at 1 day post-treatment. […] Secondary structure fractions were calculated using the BeStSel server. fH and fβ stand for helical and β fractions, respectively.

A. baumannii ATCC 19606 = assay: microbe, parasite or virus in culture
Procedure: as §1

[2] = test system: E. coli AIC222 (colistin-resistant, CRE); assay: microbe, parasite or virus in culture; parameters: MIC, E. coli AIC222 - CRE (-): unit not given beside the values; conditions: Fig 2a source data; Gram-negative, CRE; broth microdilution
Procedure: as §1

A. baumannii = assay: Cytoplasmic membrane fluidity, Laurdan generalized polarization; type: cell-based, Acinetobacter baumannii; conditions: peptides at 100× MIC stock diluted 1:100, 30 min, λex 350, λem 440/490 nm; mean of 3 independent experiments
From the text: Fig. 4 Mechanism of action, haemolytic activity and cytotoxicity of antibiotics from the archaeome. […] The fluorescence probe NPN was used to assess membrane permeabilization (a) induced by the tested EPs (Extended Data Fig. 6a). The fluorescence probe DiSC3-5 was used to evaluate membrane depolarization (b) caused by archaeasins (Extended Data Fig. 6b). The shown values represent the relative fluorescence of both probes, with nonlinear fitting compared with the baseline of the untreated control (buffer + bacteria + fluorescence dye) and benchmarked against the antibiotics polymyxin B and levofloxacin. c, Laurdan generalized polarization over time in A. baumannii treated with archaeasins. […] Higher generalized polarization values indicate increased membrane rigidity, whereas lower values reflect increased membrane fluidity. Benzyl alcohol was used as a positive control for membrane fluidization, and untreated cells served as a negative control. […] All experiments were performed in three independent replicates (Extended Data Fig. 7). The protein and peptide structures depicted in panels a and b were created with PyMOL Molecular Graphics System, v.3.0 (Schrödinger).

E. coli ATCC 11775 = assay: microbe, parasite or virus in culture; parameters: MIC, E. coli ATCC 11775 (-): unit not given beside the values; conditions: for MIC, E. coli ATCC 11775 (-): Fig 2a source data, Gram-negative, broth microdilution
Procedure: as §1

K. pneumoniae ATCC 13883 = assay: microbe, parasite or virus in culture; conditions: for MIC K. pneumoniae ATCC 13883 (−): ATCC 13883, 24 h; for MIC, K. pneumoniae ATCC 13883 (-): Fig 2a source data, Gram-negative, broth microdilution
Procedure: as §1

[3] = test system: human red blood cells (RBCs); conditions: for HC50 (source data of Fig. 4) / HC50, peptide concentration leading to 50% RBC lysis: red cells of human, 4 h
Procedure: To assess the potential toxicity of the synthesized archaeasins, we exposed them to human red blood cells (RBCs), a common method for evaluating the toxicity of antimicrobial agents[20],[26],[27].
To evaluate the release of haemoglobin from human erythrocytes upon treatment of each of the EPs, human RBCs were obtained from Zen-Bio (donor, blood type A^−) obtained from heparin anti-coagulated blood. RBCs were washed with PBS (pH 7.4) 4× by centrifugation at 800g for 10 min. Aliquots of 200-fold-diluted cells (75 μl) were mixed with peptide solution (0.78–100 μmol l^−1; 75 μl), and the mixture was incubated for 4 h at room temperature. After incubation, the plate was centrifuged at 1,300g for 10 min to precipitate cells and debris, and 100 μl of supernatant from each well was transferred to a new 96-well plate for absorbance reading (405 nm) using an automatic plate reader. The percentage of haemolysis was defined by comparison with negative control (samples containing PBS) and positive control (samples containing 1% (v/v) SDS in PBS solution). Haemolysis(%)=100×(absorbance405nmpeptide−absorbance405nmnegativecontrol)/(absorbance405nmpositivecontrol−absorbance405nmnegativecontrol)
All assays were performed in three independent biological replicates as indicated in each figure legend and in the Methods. […] In the skin abscess and thigh infection mouse models, we used six mice per group following established protocols approved by the University Laboratory of Animal Resources of the University of Pennsylvania.
Extended Data Fig. 7 Hemolytic activity of archaeasins. Hemolytic activity was assessed by exposing red blood cells to archaeasins, with lysis determined by absorbance readings after 4 h. The peptides were added to plates and subjected to a two-fold dilution series (ranging from 64 to 4 μmol L^−1) before exposure to the red blood cells. Source data

E. coli AIC221 = assay: microbe, parasite or virus in culture; parameters: MIC, E. coli AIC221 (-): unit not given beside the values; conditions: for MIC E. coli AIC221 (−): AIC221, 24 h; for MIC, E. coli AIC221 (-): Fig 2a source data, Gram-negative, broth microdilution
Procedure: as §1

P. aeruginosa PA14 = assay: microbe, parasite or virus in culture; parameters: MIC, P. aeruginosa PA14 (-): unit not given beside the values
Procedure: as §1

[4] = test system: S. aureus ATCC BAA-1556 (MRSA); assay: microbe, parasite or virus in culture; parameters: MIC, S. aureus ATCC BAA-1556 - MRSA (+): unit not given beside the values
Procedure: as §1

S. aureus ATCC 12600 = assay: microbe, parasite or virus in culture
Procedure: as §1

P. aeruginosa PAO1 = assay: microbe, parasite or virus in culture; parameters: MIC, P. aeruginosa PAO1 (-): unit not given beside the values
Procedure: as §1

[5] = Fig 2a source data, Gram-negative, broth microdilution

Structure (SMILES) | MIC E. faecium ATCC 700221 – VRE (+) [1] [µM] | MIC, E. faecium ATCC 700221 - VRE (+) [1] | MIC, A. baumannii ATCC 19606 (-) (A. baumannii ATCC 19606) | MIC, E. coli AIC222 - CRE (-) [2] | Laurdan generalized polarization change of cytoplasmic membrane (A. baumannii) | MIC, E. coli ATCC 11775 (-) (E. coli ATCC 11775) | MIC K. pneumoniae ATCC 13883 (−) (K. pneumoniae ATCC 13883) [µM] | MIC, K. pneumoniae ATCC 13883 (-) (K. pneumoniae ATCC 13883) | HC50 (source data of Fig. 4) [3] [µmol/L] | HC50, peptide concentration leading to 50% RBC lysis [3] [µmol/L] | MIC E. coli AIC221 (−) (E. coli AIC221) [µM] | MIC, E. coli AIC221 (-) (E. coli AIC221) | further results
CC[C@H](C)[C@H](N)C(=O)N[C@@H](CC(C)C)C(=O)NCC(=O)NCC(=O)N[C@@H](CCCCN)C(=O)N[C@@H](CC(C)C)C(=O)N[C@H](C(=O)N[C@@H](CCCCN)C(=O)N[C@@H](CCCCN)C(=O)N[C@@H](CO)C(=O)N[C@@H](CC(C)C)C(=O)N[C@@H](CCCCN)C(=O)N[C@@H](CC(C)C)C(=O)O)[C@@H](C)CC [Archaeasin-21] (H-ILGGKLIKKSLKL-OH; N-terminus and C-terminus assumed) | 64 (≈ 90.3 µg/mL) | 64 | 64 | 64 | only modest or even decreasing generalized polarization shifts |  |  |  |  |  |  |  | 
CC[C@H](C)[C@H](N)C(=O)NCC(=O)N[C@@H](Cc1c[nH]c2ccccc12)C(=O)N[C@H](C(=O)N[C@@H](CO)C(=O)N[C@@H](CC(N)=O)C(=O)N[C@@H](CCCNC(=N)N)C(=O)N[C@H](C(=O)N[C@H](C(=O)N[C@@H](CC(C)C)C(=O)N[C@@H](CCCCN)C(=O)N[C@@H](CC(C)C)C(=O)N[C@@H](CC(C)C)C(=O)N[C@@H](CCCNC(=N)N)C(=O)N[C@@H](Cc1ccccc1)C(=O)N[C@@H](C)C(=O)N[C@@H](CCCCN)C(=O)N[C@@H](CC(N)=O)C(=O)N[C@@H](CCSC)C(=O)N[C@@H](CCCCN)C(=O)O)[C@@H](C)CC)C(C)C)[C@@H](C)CC [Archaeasin-22] (H-IGWISNRVILKLLRFAKNMK-OH; N-terminus and C-terminus assumed) |  |  | 1 | 4 | only modest or even decreasing generalized polarization shifts | 16 | 16 (≈ 38.4 µg/mL) | 16 | 7.224 | 7 | 2 (≈ 4.8 µg/mL) | 2 | MIC E. coli ATCC 11775 (−) (E. coli ATCC 11775; ATCC 11775, 24 h): 16 µM (≈ 38.4 µg/mL)
CC[C@H](C)[C@H](NC(=O)[C@H](Cc1c[nH]c2ccccc12)NC(=O)[C@H](CCCCN)NC(=O)[C@H](CC(C)C)NC(=O)[C@H](CCCNC(=N)N)NC(=O)[C@H](C)NC(=O)[C@H](CCCNC(=N)N)NC(=O)[C@H](C)NC(=O)[C@H](CC(C)C)NC(=O)[C@H](Cc1c[nH]c2ccccc12)NC(=O)[C@@H](N)CC(C)C)C(=O)N[C@H](C(=O)O)[C@@H](C)O [Archaeasin-57] (H-LWLARARLKWIT-OH; N-terminus and C-terminus assumed) | 8 (≈ 12.2 µg/mL) | 8 | 16 | 64 | pronounced increases in generalized polarization values over time |  |  |  | 203.9 |  | 64 (≈ 97.7 µg/mL) | 64 | 
CC[C@H](C)[C@H](NC(=O)[C@H](CC(C)C)NC(=O)[C@H](CC(C)C)NC(=O)[C@H](CCCNC(=N)N)NC(=O)[C@H](C)NC(=O)[C@H](CC(C)C)NC(=O)[C@H](Cc1ccc(O)cc1)NC(=O)CNC(=O)[C@H](C)NC(=O)CN)C(=O)N[C@@H](CCCNC(=N)N)C(=O)N[C@@H](CCCNC(=N)N)C(=O)N[C@@H](CO)C(=O)N[C@@H](CC(C)C)C(=O)N[C@@H](CCCNC(=N)N)C(=O)N[C@@H](CC(C)C)C(=O)N[C@@H](CC(C)C)C(=O)N[C@@H](CCCNC(=N)N)C(=O)N[C@@H](CCCNC(=N)N)C(=O)N[C@@H](CC(C)C)C(=O)O [Archaeasin-78] (H-GAGYLARLLIRRSLRLLRRL-OH; N-terminus and C-terminus assumed) | 1 (≈ 2.37 µg/mL) | 1 | 1 | 4 | pronounced increases in generalized polarization values over time | 32 | 4 (≈ 9.47 µg/mL) | 4 | 5.537 | 6 | 1 (≈ 2.37 µg/mL) | 1 | MIC, P. aeruginosa PA14 (-) (P. aeruginosa PA14; [5]): 16; MIC P. aeruginosa PA14 (−) (P. aeruginosa PA14; PA14, 24 h): 16 µM (≈ 37.9 µg/mL); MIC S. aureus ATCC BAA-1556 – MRSA (+) ([4]; ATCC BAA-1556, 24 h): 8 µM (≈ 18.9 µg/mL); MIC, S. aureus ATCC BAA-1556 - MRSA (+) ([4]; Fig 2a source data, Gram-positive, MRSA, broth microdilution): 8; MIC S. aureus ATCC 12600 (+) (S. aureus ATCC 12600; ATCC 12600, 24 h): 8 µmol/L (≈ 18.9 µg/mL); MIC S. aureus ATCC 12600 (+) (S. aureus ATCC 12600; Fig 2a source data, Gram-positive, broth microdilution): 8; haemolytic effects [3]: did show haemolytic effects; MIC, P. aeruginosa PAO1 (-) (P. aeruginosa PAO1; [5]): 8; MIC P. aeruginosa PAO1 (−) (P. aeruginosa PAO1; PAO1, 24 h): 8 µM (≈ 18.9 µg/mL)
